Where two headings read alike, the source gives them in different places.
What was measured:
[1] = system: PFV intasome/nucleosome complex; assay: AlphaLISA PFV intasome/nucleosome interaction assay; type: binding, prototype foamy virus (PFV); human mononucleosome; settings: for inhibition of intasome/nucleosome association in AS / IC50: increasing drug concentrations; for decrease in the AS signal: OncoSET screen, 25 µM drug, 1 nM of each partner; for IC50: intasome/nucleosome AS assay, Fig. 3E; for effect on the intasome/nucleosome AS signal: retest at 10 µM, MN
Method: AlphaLISA is a technology particularly suitable for bimolecular inhibitor screening assays using protein-protein interactions with purified recombinant proteins. The AlphaLISA assay development was performed in 96-well 12 area Alphaplate (reference 6052340, PerkinElmer, Waltham, MA, USA) with a final reaction volume of 40 µL. Cross-titration experiments of biotinylated MN (0–50 nM) against DIG-intasome (0–100 nM) were carried out to establish optimal assay concentrations for the binding assay. Ten microliters of each protein were diluted in the binding buffer 50 mM BisTris-propane pH 7, 100 mM NaCl, 0.1% (v/v) Tween-20, 0.1% (w/v) BSA, and 1 mM dithiothreitol. The plate was incubated at RT for 2 h in rotation. Ten microliters of anti-DIG acceptor beads (PerkinElmer, reference AL113) were then added, and after 1 h of incubation at RT with rotation, 10 µL of streptavidin […] (Perkin Elmer, reference 6760002) was mixed to the wells. This established a final concentration of 20 µg/mL for each bead. The plate was then incubated for 1 h at RT in the dark before the AlphaLISA signal was detected using an EnSpire Multimode Plate Reader (PerkinElmer). Negative control with binding buffer or only with one of the complexes was used to control the assay quality. Data were analyzed with GraphPad Prism 5.01 software. To evaluate tolerance for DMSO, the assay was performed as described above with an addition of 0.15–20% (v/v) of DMSO during the binding step. For the competition experiment, increasing concentrations of untagged intasome were titrated out in the 1-nM DIG-intasome/biotinylated nucleosome interaction assay.
For the AlphaLISA screening assay with the NIH OncoSET library, the binding conditions were optimized for use in 384-well plate (Optiplate, reference 6007290, PerkinElmer) with the same concentrations for complexes and beads in a final reaction volume of 20.5 µL (2.5% DMSO final concentration). The screening was first carried out with 25 µM of each compound pre-incubated for 1 h with 1 nM intasome/nucleosome complexes. Compounds were selected as inducing at least 50% decrease of the AlphaLISA signal control condition, and their inhibitory effect was further tested using dose-response curves. For compounds validation, counter select assay was performed using a short DNA fragment carrying a biotin and a DIG tag on each side. The AlphaLISA signal was monitoring using increasing concentrations of the double-tagged DNA, and the selected compounds were tested in optimized conditions at 10 µM. Any compound that causes decreased signal means that it interferes with AlphaLISA readout, and therefore, it is not relevant to this assay.

[2] = system: HIV-1 intasome (vDNA•IN•LEDGF/p75); assay: in vitro HIV-1 concerted integration onto mononucleosome; type: biochemical
histone tails = target: histone tails; parameters: method as in PMID 26503405; settings: ref [18]; cited from earlier work
PFV intasome [3] = target: T1, PFV intasome (Human spumaretrovirus, UniProt P14350); assay: biochemical; type: biochemical, prototype foamy virus (PFV); parameters: Briefly, PFV IN and its cognate vDNA were mixed, and assembled intasomes were purified by size exclusion chromatography; octamers produced in E. coli; settings: for inhibition of PFV integration into MNs: 30 nM FITC PFV intasome, MN, drugs 0–25 µM
Method: Integration assays using purified assembled intasomes were performed as followed: either 100 ng of naked DNA or 100 ng of DNA assembled on 100 ng of histone octamers (24 nM final concentration) was incubated with 30 nM final concentration of purified intasome in 100 mM NaCl, 20 mM BTP pH 7, 12.5 mM MgSO4 (for PFV intasome), or in 20 mM HEPES pH 7, 7.5% DMSO, 8% PEG, 10 mM MgCl2, 20 µM ZnCl2, 100 mM NaCl, 5 mM DTT final concentration (for HIV-1 intasome) in a final volume of 40 µL. The mix was then incubated at 37°C for 15 min and 1 h, respectively. Then, reaction was stopped by the addition of 5.5 µL of a mix containing 5% SDS and 0.25 M EDTA and deproteinized with proteinase K (Promega) for 1 h at 37°C. Nucleic acids were then precipitated with 150 µL of ethanol overnight at −20°C. Samples were then spun at top speed for 1 h at 4°C, and the pellets were dried and then resuspended with DNA loading buffer. Integration products were separated on an 8% native polyacrylamide gel.

mononucleosome (MN) = assay: histone eviction assay (EMSA / SDS-PAGE); type: biochemical, human; settings: 10 µM or increasing concentrations
HIV-1 subtype B virus [4] = assay: HIV-1 infection assay in PBMCs (HIV-1 RNA in supernatant); type: cell-based; settings: Human immunodeficiency virus 1, PBMC, read-out: IC50 of HIV-1 replication
Method: PBMCs were isolated from blood samples using Ficoll-Hypaque gradient centrifugation. After separation, PBMCs were pelleted by centrifugation. […] Next, PBMCs were harvested (7 min, 400 × g) and resuspended in 500 µL culture medium. […] Then, the medium was removed, and 10 mL of RPMI 1640 was added to wash the cells. The cells were harvested at low speed (400 × g), and the washed-cell pellet was resuspended in 2 mL of supplemented RPMI 1640. The cell suspension was added to wells of a 24-well tissue culture plate and incubated at 37°C. HIV-1 RNA from plasma samples was determined at 24, 48, and 72 h postinfection.

HIV-1 subtype B virus [5] = assay: qPCR quantification of viral DNA populations in infected PBMCs; type: cell-based
[6] = system: Vpr-BLaM containing NL-4.3 or NL-4.3Δenv-VSV-G viruses; type: cell-based, HIV-1
HIV-1 intasome = settings: MN assembled onto natural DO2 sequence
PFV intasome [7] = target: T1, PFV intasome; assay: in vitro PFV integration into naked plasmid pBSK-601-Zeo DNA; type: biochemical, prototype foamy virus (PFV); parameters: Briefly, PFV IN and its cognate vDNA were mixed, and assembled intasomes were purified by size exclusion chromatography; made in house; settings: 10 µM
Method: MNs were assembled as previously described for chromatin assembly ([7], [8]). Briefly, 5 µg of biotinylated 147 bp Widom fragment (TEBU-bio) were mixed with an excess of 10 µg of human native recombinant octamers produced in E. coli [purchased from the “Histone Source” Protein Expression and Purification (PEP) facility from the Colorado State University, https://histonesource-colostate.nbsstore.net] in Tris-HCl pH 7.7 and 2 M NaCl in 100 µl final volume. Salt dialysis was then performed to decrease the salt concentration to 0 using slide-A-Lyzer MINI dialysis device, 7 k MWCO (Fisher Scientific). Assembly was checked by electro-mobility shift assay (EMSA) on 8% native PAGE stained with SYBR safe and SDS-PAGE stained with instant blue. Eviction assays of the assembled nucleosome were incubated with increasing concentrations of drugs and then analyzed by EMSA or SDS-PAGE of the supernatant after their capture using streptavidin beads (MyONE T1 invitrogen). Naked DNA substrates (pBSK-601-Zeo vector plasmid containing 601 Widom repetitions or 147 bp 601 DNA fragment) used for comparative integration assays were treated as for nucleosome assembly. […]

Structure (SMILES) | inhibition of intasome/nucleosome association in AS [1] | IC50 ([2]; Table 4, title: in vitro HIV-1 integration inhibition, read-out: Integration IC50) [µM] | Kd (histone tails) [µM] | inhibition of PFV integration into MNs (PFV intasome [3]) | decrease in the AS signal [1] | IC50 [1] [µM] | effect on the intasome/nucleosome AS signal [1] | histone eviction / MN dissociation (mononucleosome (MN)) | IC50 ([2]; preformed HIV-1 intasome, MN, read-out: IC50 of in vitro HIV-1 integration) [µM] | IC50 ([2]; preformed HIV-1 intasome, native MN (601), read-out: IC50 of in vitro HIV-1 integration) [µM] | IC50 (HIV-1 subtype B virus [4]) [µM] | effect on total viral DNA (HIV-1 subtype B virus [5]; 20 h postinfection) | effect on integrated DNA (HIV-1 subtype B virus [5]; infected PBMCs) | effect on two-LTR circles (HIV-1 subtype B virus [5]; infected PBMCs) | effect on viral fusion / entry [6] | inhibition of HIV-1 integration into DO2 nucleosome (HIV-1 intasome) | cytotoxicity (PBMC cells) | IC50 (PFV intasome [3]) [µM] | inhibition of PFV integration into plasmid pBSK-601-Zeo DNA (PFV intasome [7])
O=S(=O)(O)c1cc2c(O)c(c1)Cc1cc(S(=O)(=O)O)cc(c1O)Cc1cc(S(=O)(=O)O)cc(c1O)Cc1cc(S(=O)(=O)O)cc(c1O)C2 [CA1] | less efficient in inhibiting the association | > 1 | 17.8 to 20.4 | inefficient in our assay |  |  |  |  |  |  |  |  |  |  |  |  |  |  | 
COc1cccc2c1C(=O)c1c(O)c3c(c(O)c1C2=O)C[C@@](O)(C(=O)CO)C[C@@H]3O[C@H]1C[C@H](N)[C@H](O)[C@H](C)O1 [Doxorubicin, doxorubicin] |  |  |  | able to inhibit PFV integration into MNs | at least 50% | 0.87 ± 0.04 | strong inhibitory effect | full shift of the nucleosomal DNA in addition to a strong MN dissociation | ~0.3 | < 1 | 0.002 to 0.02 | no effect | decreased | increased | did not affect this early entry step | as efficient in inhibiting the HIV-1 integration into DO2 nucleosome than onto the 601 nucleosome | poor cytotoxicity | < 1 | 
O=C1c2c(O)ccc(O)c2C(=O)c2c(NCCNCCO)ccc(NCCNCCO)c21 [Mitoxantrone, mitoxantrone] |  |  |  | did not show any inhibitory effect on integration | at least 50% | 0.38 ± 0.05 | strong inhibitory effect |  |  |  |  |  |  |  |  |  |  |  | remained inefficient
CC/C(=C(\c1ccccc1)c1ccc(OCCN(C)C)cc1)c1ccccc1 [Tamoxifen, tamoxifen] | only a slight inhibition effect |  |  | inefficient in inhibiting integration |  |  |  |  |  |  |  |  |  |  |  |  |  |  | remained inefficient

— paper PMC10470491, “Modulation of the functional interfaces between retroviral intasomes and the human nucleosome” (mBio, 2023)
